# Source: ChEMBL document CHEMBL1201861, “Genomics of Drug Sensitity in Cancer screening data, Wellcome Trust Sanger Institute”
# pIC50: −log10 of the molar value.
# How the values were obtained:
# Test in all cases: cells
# [1] = test system: COR-L88; type: functional, cell-based; conditions: Homo sapiens;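 note: growth inhibition of COR-L88 cells, read out with a cell viability assay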
# Description: SANGER: Inhibition of human COR-L88 cell growth in a cell viability assay.
# [2] = test system: DU-145; type: functional, cell-based, Homo sapiens; conditions: Homo sapiens, DU-145
# Description: SANGER: Inhibition of human DU-145 cell growth in a cell viability assay.
# [3] = test system: G-402; type: functional, cell-based, Homo sapiens; conditions: Homo sapiens, G-402
# Description: SANGER: Inhibition of human G-402 cell growth in a cell viability assay.
# [4] = test system: GAMG; type: functional, cell-based, Homo sapiens; conditions: Homo sapiens, GAMG;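 note: cell growth inhibition measured by a viability assay in the GAMG human cell line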
# Description: SANGER: Inhibition of human GAMG cell growth in a cell viability assay.
# [5] = test system: HCC1395; type: functional, cell-based, Homo sapiens; conditions: Homo sapiens, HCC1395;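 note: growth inhibition of HCC1395 cells, read out by a cell viability assay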
# Description: SANGER: Inhibition of human HCC1395 cell growth in a cell viability assay.
# [6] = test system: HCC2218; type: functional, cell-based; conditions: Homo sapiens;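 note: cell viability assay read-out, with IC50 given as the concentration that inhibits growth of the cell line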
# Description: SANGER: Inhibition of human HCC2218 cell growth in a cell viability assay.
# [7] = test system: HCE-T; type: functional, cell-based, Homo sapiens; conditions: Homo sapiens, HCE-T;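 note: cell viability assay read-out, reporting inhibition of HCE-T cell growth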
# Description: SANGER: Inhibition of human HCE-T cell growth in a cell viability assay.
# [8] = test system: HD-MY-Z; type: functional, cell-based, Homo sapiens; conditions: Homo sapiens, HD-MY-Z;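 note: growth inhibition of HD-MY-Z cells, read out with a cell viability assay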
# Description: SANGER: Inhibition of human HD-MY-Z cell growth in a cell viability assay.
# [9] = test system: HDLM-2; type: functional, cell-based; conditions: Homo sapiens;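 note: cell viability assay measuring suppression of HDLM-2 proliferation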
# Description: SANGER: Inhibition of human HDLM-2 cell growth in a cell viability assay.
# [10] = test system: HEL; type: functional, cell-based, Homo sapiens; conditions: Homo sapiens, HEL;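 note: growth inhibition of HEL cells, read out with a cell viability assay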
# Description: SANGER: Inhibition of human HEL cell growth in a cell viability assay.
# [11] = test system: HSC-2; type: functional, cell-based, Homo sapiens; conditions: Homo sapiens, HSC-2;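 note: growth inhibition of human HSC-2 cells, read out by a cell viability assay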
# Description: SANGER: Inhibition of human HSC-2 cell growth in a cell viability assay.
# [12] = test system: HT-1080; type: functional, cell-based, Homo sapiens; conditions: Homo sapiens, HT-1080
# Description: SANGER: Inhibition of human HT-1080 cell growth in a cell viability assay.
# [13] = test system: IA-LM; type: functional, cell-based, Homo sapiens; conditions: Homo sapiens, IA-LM;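 note: cell viability assay measuring growth inhibition of human IA-LM cells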
# Description: SANGER: Inhibition of human IA-LM cell growth in a cell viability assay.
# [14] = test system: K5; type: functional, cell-based, Homo sapiens; conditions: Homo sapiens, K5
# Description: SANGER: Inhibition of human K5 cell growth in a cell viability assay.
# [15] = test system: LS-1034; type: functional, cell-based, Homo sapiens; conditions: Homo sapiens, LS-1034
# Description: SANGER: Inhibition of human LS-1034 cell growth in a cell viability assay.
# [16] = test system: MDA-MB-175-VII; type: functional, cell-based, Homo sapiens; conditions: Homo sapiens, MDA-MB-175-VII
# [17] = test system: MOLT-16; type: functional, cell-based; conditions: Homo sapiens;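 note: growth inhibition of human MOLT-16 cells, read out with a cell viability assay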
# Description: SANGER: Inhibition of human MOLT-16 cell growth in a cell viability assay.
# [18] = test system: MOLT-4; type: functional, cell-based; conditions: Homo sapiens;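 note: growth inhibition of MOLT-4 cells, determined with a cell viability readout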
# Description: SANGER: Inhibition of human MOLT-4 cell growth in a cell viability assay.
# [19] = test system: Mo; type: functional, cell-based; conditions: Homo sapiens
# Description: SANGER: Inhibition of human Mo-T cell growth in a cell viability assay.
# [20] = test system: NCI-H1155; type: functional, cell-based; conditions: Homo sapiens;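 note: cell growth inhibition measured by a viability assay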
# Description: SANGER: Inhibition of human NCI-H1155 cell growth in a cell viability assay.
# [21] = test system: NCI-H1563; type: functional, cell-based, Homo sapiens; conditions: Homo sapiens, NCI-H1563;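 note: growth inhibition of human NCI-H1563 cells, read out with a cell viability assay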
# Description: SANGER: Inhibition of human NCI-H1563 cell growth in a cell viability assay.
# [22] = test system: NCI-H1755; type: functional, cell-based, Homo sapiens; conditions: Homo sapiens, NCI-H1755;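 note: cell viability readout used to measure growth inhibition of NCI-H1755 cells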
# Description: SANGER: Inhibition of human NCI-H1755 cell growth in a cell viability assay.
# [23] = test system: NCI-H28; type: functional, cell-based, Homo sapiens; conditions: Homo sapiens, NCI-H28;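 note: growth inhibition of human NCI-H28 cells, read out as cell viability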
# Description: SANGER: Inhibition of human NCI-H28 cell growth in a cell viability assay.
# [24] = test system: NCI-H720; type: functional, cell-based; conditions: Homo sapiens;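 note: growth inhibition of human NCI-H720 cells determined by a cell viability assay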
# Description: SANGER: Inhibition of human NCI-H720 cell growth in a cell viability assay.
# [25] = test system: OVCAR-5; type: functional, cell-based, Homo sapiens; conditions: Homo sapiens, OVCAR-5;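 note: growth inhibition of human OVCAR-5 cells, read out with a cell viability assay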
# Description: SANGER: Inhibition of human OVCAR-5 cell growth in a cell viability assay.
# [26] = test system: PA-1; type: functional, cell-based, Homo sapiens; conditions: Homo sapiens, PA-1;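 note: IC50 for suppression of PA-1 cell proliferation, determined with a cell viability read-out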
# Description: SANGER: Inhibition of human PA-1 cell growth in a cell viability assay.
# [27] = test system: PC-3; type: functional, cell-based, Homo sapiens; conditions: Homo sapiens, PC-3;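 note: cell viability assay measuring growth inhibition of PC-3 cells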
# Description: SANGER: Inhibition of human PC-3 cell growth in a cell viability assay.
# [28] = test system: RERF-LC-MS; type: functional, cell-based, Homo sapiens; conditions: Homo sapiens, RERF-LC-MS;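 note: growth inhibition of human RERF-LC-MS cells, read out by a cell viability assay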
# Description: SANGER: Inhibition of human RERF-LC-MS cell growth in a cell viability assay.
# [29] = test system: RPMI-2650; type: functional, cell-based, Homo sapiens; conditions: Homo sapiens, RPMI-2650
# Description: SANGER: Inhibition of human RPMI-2650 cell growth in a cell viability assay.
# [30] = test system: RPMI-7951; type: functional, cell-based, Homo sapiens; conditions: Homo sapiens, RPMI-7951
# Description: SANGER: Inhibition of human RPMI-7951 cell growth in a cell viability assay.
# [31] = test system: RPMI-8226; type: functional, cell-based; conditions: Homo sapiens
# Description: SANGER: Inhibition of human RPMI-8226 cell growth in a cell viability assay.
# [32] = test system: RVH-421; type: functional, cell-based, Homo sapiens; conditions: Homo sapiens, RVH-421
# Description: SANGER: Inhibition of human RVH-421 cell growth in a cell viability assay.
# [33] = test system: SBC-5; type: functional, cell-based, Homo sapiens; conditions: Homo sapiens, SBC-5;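 note: cell viability assay read-out, IC50 is the concentration that inhibits growth of the cells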
# Description: SANGER: Inhibition of human SBC-5 cell growth in a cell viability assay.
# [34] = test system: SCC-4; type: functional, cell-based, Homo sapiens; conditions: Homo sapiens, SCC-4;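 note: growth inhibition of human SCC-4 cells, read out as cell viability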
# Description: SANGER: Inhibition of human SCC-4 cell growth in a cell viability assay.
# [35] = test system: SCC-9; type: functional, cell-based, Homo sapiens; conditions: Homo sapiens, SCC-9;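 note: Read-out is a cell viability assay, with values giving inhibition of cell growth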
# Description: SANGER: Inhibition of human SCC-9 cell growth in a cell viability assay.
# [36] = test system: SF-126; type: functional, cell-based, Homo sapiens; conditions: Homo sapiens, SF-126;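 note: growth inhibition of human SF126 cells, read out with a cell viability assay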
# Description: SANGER: Inhibition of human SF126 cell growth in a cell viability assay.
# [37] = test system: SK-LMS-1; type: functional, cell-based, Homo sapiens; conditions: Homo sapiens, SK-LMS-1;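 note: growth inhibition of human SK-LMS-1 cells, read out with a cell viability assay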
# Description: SANGER: Inhibition of human SK-LMS-1 cell growth in a cell viability assay.
# [38] = test system: SK-MEL-1; type: functional, cell-based; conditions: Homo sapiens;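 note: growth inhibition of human SK-MEL-1 cells, read out by a cell viability assay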
# Description: SANGER: Inhibition of human SK-MEL-1 cell growth in a cell viability assay.
# [39] = test system: SNU-449; type: functional, cell-based, Homo sapiens; conditions: Homo sapiens, SNU-449
# Description: SANGER: Inhibition of human SNU-449 cell growth in a cell viability assay.
# [40] = test system: SW 962; type: functional, cell-based, Homo sapiens; conditions: Homo sapiens, SW 962;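 note: growth inhibition of human SW962 cells, read out by a cell viability assay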
# Description: SANGER: Inhibition of human SW962 cell growth in a cell viability assay.
# [41] = test system: A204; type: functional, cell-based, Homo sapiens; conditions: Homo sapiens, A204;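 note: growth inhibition of human A204 cells, read out with a cell viability assay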
# Description: SANGER: Inhibition of human A204 cell growth in a cell viability assay.
# [42] = test system: A-427; type: functional, cell-based, Homo sapiens; conditions: Homo sapiens, A-427;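 note: growth inhibition of human A-427 cells, read out by a cell viability assay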
# Description: SANGER: Inhibition of human A427 cell growth in a cell viability assay.
# [43] = test system: ABC-1; type: functional, cell-based, Homo sapiens; conditions: Homo sapiens, ABC-1;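 note: growth inhibition of human ABC-1 cells, read out by a cell viability assay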
# Description: SANGER: Inhibition of human ABC-1 cell growth in a cell viability assay.
# [44] = test system: BB65-RCC; type: functional, cell-based, Homo sapiens; conditions: Homo sapiens, BB65-RCC;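 note: growth inhibition of the cell line, measured with a cell viability assay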
# Description: SANGER: Inhibition of human BB65-RCC cell growth in a cell viability assay.
# [45] = test system: BEN; type: functional, cell-based, Homo sapiens; conditions: Homo sapiens, BEN;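 note: growth inhibition of the BEN cell line, read out with a cell viability assay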
# Description: SANGER: Inhibition of human BEN cell growth in a cell viability assay.
# [46] = test system: Becker; type: functional, cell-based, Homo sapiens; conditions: Homo sapiens, Becker;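 note: growth inhibition of Becker cells, read out with a cell viability assay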
# Description: SANGER: Inhibition of human Becker cell growth in a cell viability assay.
# [47] = test system: C8166; type: functional, cell-based; conditions: Homo sapiens;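 note: growth inhibition of human C8166 cells measured by a cell viability assay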
# Description: SANGER: Inhibition of human C8166 cell growth in a cell viability assay.
# [48] = test system: TE-5; type: functional, cell-based, Homo sapiens; conditions: Homo sapiens, TE-5;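 note: inhibition of cell growth, read out by a cell viability assay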
# Description: SANGER: Inhibition of human TE-5 cell growth in a cell viability assay.
# [49] = test system: UO-31; type: functional, cell-based; conditions: Homo sapiens;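 note: cell viability assay measuring inhibition of cell growth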
# Description: SANGER: Inhibition of human U031 cell growth in a cell viability assay.
# [50] = test system: U-251; type: functional, cell-based, Homo sapiens; conditions: Homo sapiens, U-251;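 note: growth inhibition of human U-251 cells, read out through a cell viability assay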
# Description: SANGER: Inhibition of human U251 cell growth in a cell viability assay.
# [51] = test system: CHL-1; type: functional, cell-based, Homo sapiens; conditions: Homo sapiens, CHL-1;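 note: cell growth inhibition, read out with a cell viability assay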
# Description: SANGER: Inhibition of human CHL-1 cell growth in a cell viability assay.
# [52] = test system: COLO-684; type: functional, cell-based; conditions: Homo sapiens
# Description: SANGER: Inhibition of human COLO-684 cell growth in a cell viability assay.
structure (smiles),measurement,setting,value
Cn1cncc1[C@@](N)(c1ccc(Cl)cc1)c1ccc2c(c1)c(-c1cccc(Cl)c1)cc(=O)n2C [TIPIFARNIB],pIC50,[1],< 4.80
same,pIC50,[2],5.06
same,pIC50,[3],5.68
same,pIC50,[4],5.05
same,pIC50,[5],4.83
same,pIC50,[6],< 4.80
same,pIC50,[7],5.10
same,pIC50,[8],< 4.80
same,pIC50,[9],< 4.80
same,pIC50,[10],6.40
same,pIC50,[11],5.28
same,pIC50,[12],4.99
same,pIC50,[13],7.32
same,pIC50,[14],< 4.80
same,pIC50,[15],5.61
same,pIC50,[16],< 4.80
same,pIC50,[17],6.59
same,pIC50,[18],5.31
same,pIC50,[19],< 4.80
same,pIC50,[20],< 4.80
same,pIC50,[21],< 4.80
same,pIC50,[22],< 4.80
same,pIC50,[23],< 4.80
same,pIC50,[24],< 4.80
same,pIC50,[25],< 4.80
same,pIC50,[26],5.87
same,pIC50,[27],4.95
same,pIC50,[28],< 4.80
same,pIC50,[29],5.08
same,pIC50,[30],4.87
same,pIC50,[31],5.04
same,pIC50,[32],< 4.80
same,pIC50,[33],5.55
same,pIC50,[34],5.88
same,pIC50,[35],< 4.80
same,pIC50,[36],5.41
same,pIC50,[37],6.73
same,pIC50,[38],< 4.80
same,pIC50,[39],6.21
same,pIC50,[40],5.67
same,pIC50,[41],5.45
same,pIC50,[42],6.24
same,pIC50,[43],5.49
same,pIC50,[44],5.58
same,pIC50,[45],5.27
same,pIC50,[46],5.19
same,pIC50,[47],< 4.80
same,pIC50,[48],4.93
same,pIC50,[49],4.97
same,pIC50,[50],5.15
same,pIC50,[51],6.09
same,pIC50,[52],5.24
COC(=O)CNC(=O)C(=O)OC,pIC50,[1],3.56
same,pIC50,[2],3.08
same,pIC50,[3],2.91
same,pIC50,[4],2.86
same,pIC50,[5],2.81
same,pIC50,[6],< 2.40
same,pIC50,[7],2.46
same,pIC50,[8],2.83
same,pIC50,[9],2.72
same,pIC50,[10],3.71
same,pIC50,[11],3.30
same,pIC50,[12],3.38
same,pIC50,[13],3.82
same,pIC50,[14],3.80
same,pIC50,[15],2.59
same,pIC50,[16],< 2.40
same,pIC50,[17],3.90
same,pIC50,[18],3.14
same,pIC50,[19],2.73
same,pIC50,[20],2.81
same,pIC50,[21],3.91
same,pIC50,[22],2.56
same,pIC50,[23],2.87
same,pIC50,[24],< 2.40
same,pIC50,[25],3.34
same,pIC50,[26],3.92
same,pIC50,[27],3.38
same,pIC50,[28],2.78
same,pIC50,[29],3.55
same,pIC50,[30],3.49
same,pIC50,[31],3.06
same,pIC50,[32],2.88
same,pIC50,[33],2.86
same,pIC50,[34],3.06
same,pIC50,[35],3.91
same,pIC50,[36],3.66
same,pIC50,[37],3.92
same,pIC50,[38],2.62
same,pIC50,[39],4.03
same,pIC50,[40],3.58
same,pIC50,[41],3.40
same,pIC50,[42],3.19
same,pIC50,[43],3.35
same,pIC50,[44],2.62
same,pIC50,[45],4.43
same,pIC50,[46],3.56
same,pIC50,[47],2.98
same,pIC50,[48],2.96
same,pIC50,[49],3.47
same,pIC50,[50],3.67
same,pIC50,[51],3.04
same,pIC50,[52],3.25
Nc1ccn([C@@H]2O[C@H](CO)[C@@H](O)[C@@H]2O)c(=O)n1 [CYTARABINE],pIC50,[1],< 5.70
same,pIC50,[2],< 5.70
same,pIC50,[3],6.19
same,pIC50,[4],6.40
same,pIC50,[5],< 5.70
same,pIC50,[6],< 5.70
same,pIC50,[7],< 5.70
same,pIC50,[8],6.13
same,pIC50,[9],< 5.70
same,pIC50,[10],7.69
same,pIC50,[11],5.84
same,pIC50,[12],6.94
same,pIC50,[13],< 5.70
same,pIC50,[14],7.36
same,pIC50,[15],< 5.70
same,pIC50,[16],5.70
same,pIC50,[17],7.44
same,pIC50,[18],7.05
same,pIC50,[19],< 5.70
same,pIC50,[20],6.40
same,pIC50,[21],< 5.70
same,pIC50,[22],< 5.70
same,pIC50,[23],5.74
same,pIC50,[24],< 5.70
same,pIC50,[25],6.66
same,pIC50,[26],6.73
same,pIC50,[27],5.89
same,pIC50,[28],5.75
same,pIC50,[29],6.40
same,pIC50,[30],6.47
same,pIC50,[31],< 5.70
same,pIC50,[32],< 5.70
same,pIC50,[33],< 5.70
same,pIC50,[34],6.02
same,pIC50,[35],< 5.70
same,pIC50,[36],6.16
same,pIC50,[37],< 5.70
same,pIC50,[38],< 5.70
same,pIC50,[39],< 5.70
same,pIC50,[40],< 5.70
same,pIC50,[41],6.51
same,pIC50,[42],7.46
same,pIC50,[43],5.82
same,pIC50,[44],6.96
same,pIC50,[45],< 5.70
same,pIC50,[46],5.96
same,pIC50,[47],< 5.70
same,pIC50,[48],6.42
same,pIC50,[49],5.90
same,pIC50,[50],5.95
same,pIC50,[51],5.98
same,pIC50,[52],< 5.70
